Assay results as given in PubChem BioAssay (NCI).
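Compound exposure: 48 hours, 5 concentrations, 96-well plates. TGI: total growth inhibition.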 Where a SMILES comes first, the peptide text is derived from it. The star is where a group is joined. Trt = c1ccc(C(c2ccccc2)(c2ccccc2)*)cc1; Cbz = O=C(OCc1ccccc1)*

Legend:
Assay in all cases: NCI anticancer screen, dose series, 48 h
786-0 renal = tested on: 786-0 renal
A549 NSCLC = tested on: A549 NSCLC
ACHN renal = tested on: ACHN renal
CAKI-1 renal = tested on: CAKI-1 renal
CCRF-CEM leukemia = tested on: CCRF-CEM leukemia
COLO 205 colon = tested on: COLO 205 colon
DU-145 prostate = tested on: DU-145 prostate
EKVX NSCLC = tested on: EKVX NSCLC
HCC-2998 colon = tested on: HCC-2998 colon
HCT-116 colon = tested on: HCT-116 colon
HCT-15 colon = tested on: HCT-15 colon
HL-60(TB) leukemia = tested on: HL-60(TB) leukemia
HOP-62 NSCLC = tested on: HOP-62 NSCLC
HOP-92 NSCLC = tested on: HOP-92 NSCLC
HS 578T breast = tested on: HS 578T breast
HT29 colon = tested on: HT29 colon
IGROV1 ovarian = tested on: IGROV1 ovarian
K-562 leukemia = tested on: K-562 leukemia
KM12 colon = tested on: KM12 colon
LOX IMVI melanoma = tested on: LOX IMVI melanoma
M14 melanoma = tested on: M14 melanoma
MALME-3M melanoma = tested on: MALME-3M melanoma
MCF7 breast = tested on: MCF7 breast
MDA-MB-231 breast = tested on: MDA-MB-231 breast
MDA-MB-435 = tested on: MDA-MB-435
MOLT-4 leukemia = tested on: MOLT-4 leukemia
NCI-H226 lung = tested on: NCI-H226 lung
NCI-H23 lung = tested on: NCI-H23 lung
NCI-H460 lung = tested on: NCI-H460 lung
NCI-H522 lung = tested on: NCI-H522 lung
NCI/ADR-RES ovarian = tested on: NCI/ADR-RES ovarian
OVCAR-3 ovarian = tested on: OVCAR-3 ovarian
OVCAR-4 ovarian = tested on: OVCAR-4 ovarian
OVCAR-5 ovarian = tested on: OVCAR-5 ovarian
OVCAR-8 ovarian = tested on: OVCAR-8 ovarian
PC-3 prostate = tested on: PC-3 prostate
RPMI-8226 leukemia = tested on: RPMI-8226 leukemia
RXF 393 renal = tested on: RXF 393 renal
SF-268 CNS = tested on: SF-268 CNS
SF-295 CNS = tested on: SF-295 CNS
SF-539 CNS = tested on: SF-539 CNS
SK-MEL-2 melanoma = tested on: SK-MEL-2 melanoma
SK-MEL-28 melanoma = tested on: SK-MEL-28 melanoma
SK-MEL-5 melanoma = tested on: SK-MEL-5 melanoma
SK-OV-3 ovarian = tested on: SK-OV-3 ovarian
SN12C renal = tested on: SN12C renal
SNB-19 CNS = tested on: SNB-19 CNS
SNB-75 CNS = tested on: SNB-75 CNS
SR leukemia = tested on: SR leukemia
SW-620 colon = tested on: SW-620 colon
T-47D breast = tested on: T-47D breast
TK-10 renal = tested on: TK-10 renal
U251 CNS = tested on: U251 CNS
UACC-257 melanoma = tested on: UACC-257 melanoma
UACC-62 melanoma = tested on: UACC-62 melanoma
UO-31 renal = tested on: UO-31 renal

How did the TGI (786-0 renal) turn out when `COC(=O)C(CO)NC(=O)C(CSC(c1ccccc1)(c1ccccc1)c1ccccc1)NC(=O)OCc1ccccc1` (stereo unspecified) (Cbz-Cys(Trt)-Ser-OMe; configuration not given here) was run?
Its TGI is 46.9 µM.

And the TGI (A549 NSCLC)?
The TGI was over 48.5 µM.

What about the TGI (ACHN renal) of the same molecule?
The TGI was over 53.3 µM.

What about the TGI (CAKI-1 renal) of the same molecule?
The TGI was 39.4 µM.

And the TGI (CCRF-CEM leukemia)?
Its TGI is 7.63 µM.

What about the TGI (COLO 205 colon) of the same molecule?
The TGI was 32.4 µM.

And the TGI (DU-145 prostate)?
Its TGI is 43.4 µM.

And the TGI (EKVX NSCLC)?
Its TGI is 41.1 µM.

What about the TGI (HCC-2998 colon) of the same molecule?
Its TGI is 29 µM.

What about the TGI (HCT-116 colon) of the same molecule?
The TGI was 42.1 µM.

And the TGI (HCT-15 colon)?
Its TGI is over 52.9 µM.

What about the TGI (HL-60(TB) leukemia) of the same molecule?
The TGI was over 43.6 µM.

And the TGI (HOP-62 NSCLC)?
Its TGI is 46.5 µM.

And the TGI (HOP-92 NSCLC)?
The TGI was 29.8 µM.

What about the TGI (HS 578T breast) of the same molecule?
The TGI was 47.9 µM.

What about the TGI (HT29 colon) of the same molecule?
The TGI was 33.3 µM.

And the TGI (IGROV1 ovarian)?
The TGI was 37.3 µM.

And the TGI (K-562 leukemia)?
Its TGI is over 49 µM.

What about the TGI (KM12 colon) of the same molecule?
The TGI was 31.3 µM.

And the TGI (LOX IMVI melanoma)?
The TGI was 30.1 µM.

What about the TGI (M14 melanoma) of the same molecule?
Its TGI is 44 µM.

What about the TGI (MALME-3M melanoma) of the same molecule?
The TGI was 28.5 µM.

And the TGI (MCF7 breast)?
The TGI was over 59.1 µM.

What about the TGI (MDA-MB-231 breast) of the same molecule?
Its TGI is 27.8 µM.

And the TGI (MDA-MB-435)?
The TGI was 30.2 µM.

What about the TGI (MOLT-4 leukemia) of the same molecule?
Its TGI is over 32.1 µM.

And the TGI (NCI-H226 lung)?
Its TGI is 26.4 µM.

What about the TGI (NCI-H23 lung) of the same molecule?
The TGI was 40.8 µM.

What about the TGI (NCI-H460 lung) of the same molecule?
Its TGI is 33.6 µM.

What about the TGI (NCI-H522 lung) of the same molecule?
The TGI was 34.3 µM.

What about the TGI (NCI/ADR-RES ovarian) of the same molecule?
The TGI was 49.5 µM.

And the TGI (OVCAR-3 ovarian)?
The TGI was 28.6 µM.

What about the TGI (OVCAR-4 ovarian) of the same molecule?
The TGI was over 50.2 µM.

What about the TGI (OVCAR-5 ovarian) of the same molecule?
Its TGI is 35.3 µM.

And the TGI (OVCAR-8 ovarian)?
The TGI was 36.5 µM.

And the TGI (PC-3 prostate)?
Its TGI is 27.4 µM.

What about the TGI (RPMI-8226 leukemia) of the same molecule?
Its TGI is 5.55 µM.

What about the TGI (RXF 393 renal) of the same molecule?
The TGI was 32.5 µM.

What about the TGI (SF-268 CNS) of the same molecule?
Its TGI is 44.9 µM.

And the TGI (SF-295 CNS)?
The TGI was 34.5 µM.

And the TGI (SF-539 CNS)?
Its TGI is 26.3 µM.

What about the TGI (SK-MEL-2 melanoma) of the same molecule?
The TGI was 34.5 µM.

And the TGI (SK-MEL-28 melanoma)?
Its TGI is 34 µM.

What about the TGI (SK-MEL-5 melanoma) of the same molecule?
The TGI was 28.4 µM.

What about the TGI (SK-OV-3 ovarian) of the same molecule?
Its TGI is over 90.1 µM.

What about the TGI (SN12C renal) of the same molecule?
The TGI was 27.3 µM.

What about the TGI (SNB-19 CNS) of the same molecule?
Its TGI is 50.7 µM.

And the TGI (SNB-75 CNS)?
The TGI was 33.7 µM.

And the TGI (SR leukemia)?
Its TGI is 0.221 µM.

What about the TGI (SW-620 colon) of the same molecule?
The TGI was 32.4 µM.

And the TGI (T-47D breast)?
Its TGI is over 52 µM.

What about the TGI (TK-10 renal) of the same molecule?
The TGI was over 66.1 µM.

And the TGI (U251 CNS)?
Its TGI is 33.3 µM.

What about the TGI (UACC-257 melanoma) of the same molecule?
Its TGI is 25.6 µM.

And the TGI (UACC-62 melanoma)?
Its TGI is 24.9 µM.

What about the TGI (UO-31 renal) of the same molecule?
The TGI was 28.5 µM.
